Assay: molar heat capacity at saturation pressure
Conditions: Liquid, Vacuum adiabatic calorimetry

CCCCCC[n+]1ccn(C)c1.O=S(=O)([N-]S(=O)(=O)C(F)(F)F)C(F)(F)F
Conditions | molar heat capacity [J/K/mol]
288.72 K | 599.09
288.87 K | 602.23
289.04 K | 592.83
289.17 K | 597.31
289.3 K | 604.91
289.44 K | 590.59
289.57 K | 596.41
289.7 K | 599.99
289.83 K | 601.78
297.45 K | 599.54
297.76 K | 608.04
297.89 K | 604.46
298.02 K | 598.65
298.15 K | 596.41
298.28 K | 606.25
298.41 K | 601.78
298.53 K | 599.99
298.66 K | 603.57
301.64 K | 606.7
301.75 K | 608.94
301.88 K | 612.52
302.01 K | 606.7
302.13 K | 613.41
302.26 K | 605.81
304.3 K | 608.49
304.69 K | 603.12
304.82 K | 606.7
304.95 K | 612.52
305.08 K | 604.46
305.2 K | 610.73
305.33 K | 607.6
305.46 K | 613.41
305.59 K | 609.39
314.15 K | 619.68
314.57 K | 615.2
314.69 K | 607.6
314.82 K | 616.99
314.94 K | 611.62
315.07 K | 612.52
315.2 K | 618.33
315.32 K | 614.75
315.45 K | 608.94
320.89 K | 620.12
321.17 K | 622.81
321.3 K | 614.75
321.42 K | 621.02
321.55 K | 613.41
321.67 K | 616.99
321.79 K | 616.1
321.92 K | 619.23
322.04 K | 622.36
322.16 K | 621.02
322.29 K | 618.33
322.41 K | 623.7
323.89 K | 624.15
324.15 K | 620.57
324.28 K | 625.49
324.4 K | 627.73
324.52 K | 629.07
324.65 K | 621.47
324.77 K | 622.81
324.89 K | 617.89
325.02 K | 621.02
325.14 K | 625.05
325.24 K | 622.36
325.26 K | 623.7
333.63 K | 634.44
333.82 K | 633.99
333.94 K | 626.83
334.06 K | 631.76
334.18 K | 629.07
334.3 K | 632.65
334.42 K | 636.68
334.54 K | 633.1
334.66 K | 627.28
334.79 K | 631.31
334.91 K | 629.97
339.73 K | 638.92
339.83 K | 637.13
339.95 K | 634.89
340.03 K | 643.39
340.15 K | 635.78
340.27 K | 640.7
340.39 K | 642.05
340.51 K | 638.47
344.34 K | 641.6
344.46 K | 645.63
344.58 K | 642.49
344.7 K | 644.73
344.82 K | 639.36
344.93 K | 648.31
345.05 K | 647.42
345.17 K | 645.18
345.29 K | 638.47
345.41 K | 643.84
348.64 K | 645.18
348.76 K | 643.84
348.88 K | 648.31
348.99 K | 646.97
349.11 K | 649.65
349.23 K | 648.76
349.35 K | 644.73
349.47 K | 647.42
349.58 K | 643.39
349.65 K | 648.31
349.7 K | 645.63
349.82 K | 643.39
349.94 K | 645.63
350.05 K | 644.73
350.17 K | 646.97
350.29 K | 647.86
350.36 K | 647.42

From the NIST ThermoML archive (doi:10.1007/s10765-016-2109-2)
